Where a name gives a salt, the structure may show the parent alone.
Tests used:
Format in all cases: cell-based
COL1A1 = assay: In vitro efficacy in semi-activated LX2 cells, qPCR: COL1A1; details: Homo sapiens, LX-2, 50 µM, 48 hours, Q-PCR, read-out: COL1A1 mRNA inhibition rate
COL3A1 = assay: In vitro efficacy in semi-activated LX2 cells, qPCR: COL3A1; details: Homo sapiens, LX-2, 50 µM, 48 hours, Q-PCR, read-out: COL3A1 mRNA inhibition rate
[1] = test system: liver fibrosis-related genes; assay: Semi-activated LX2 cells, qPCR: liver fibrosis-related genes overall; details: 48 hours, Q-PCR, Table 2
Protocol: Test compounds were added to the LX-2 cells respectively, and total RNA in the cells was extracted 48 hours later. This experiment was performed strictly in accordance with the instructions of the Total RNA Kit. The steps were as follows (note: this experiment was performed on ice throughout the entire process, and special RNase-free tips were used throughout the entire process): • 1) The 12-well cell culture plate was taken out from the incubator, the cell culture medium was discarded, the cells were washed twice with 1 mL of 1×PBS, and a negative pressure suction device was used to fully remove PBS; • 2) 350 μL of TRK Lysis Buffer mixture/well was prepared as needed (mixture preparation method: 1 mL of TRKLysis Buffer+20 μL of β-mercaptoethanol), vortexed and mixed well. 350 μL was added to each well of the 12-well cell culture plate, and allowed to stand at room temperature for 5 minutes to fully lyse the cells; • 3) 70% ethanol/well was prepared as needed, vortexed and mixed well. 350 μL was added to each well of the 12-well cell culture plate, mixed well by shaking, and transferred to the spin column (spin column+collection tube were assembled); • 4) Centrifugation was performed at 4° C., 12000 g for 60 sec. The waste liquid was discarded after centrifugation, while the spin column was kept; • 5) 500 μL of RNA Wash Buffer I was added, centrifuged at 4° C., 12000 g for 60 sec, the waste liquid was discarded after centrifugation, and the collection column was kept; • 6) 500 μL of RNA Wash Buffer II (confirmed that ethanol had been added) was added, centrifuged at 4° C., 12000 g for 60 sec, the waste liquid was discarded after centrifugation, and the collection column was kept; • 7) step 6) was repeated once again, centrifugation was performed at 4° C., 12000 g for 90 sec, the waste liquid was discarded after centrifugation, and the collection column was kept; • 8) Centrifugation was performed at 4° C., 12000 g for 120 sec to ensure that the spin column was fully dried; • 9) The dried spin column was inserted into a new 1.5 mL EP tube, and 30 μL of DEPC water was added to the membrane in the center of the spin column. It should be careful not to touch the EP tube cover in this step. It was allowed to stand at room temperature for 5 minutes to ensure that the RNA was fully dissolved in DEPC water. Centrifugation was performed at 4° C., 12000 g for 60 sec, and the EP tube was kept; • 10) NanoDrop ultra-micro-volume spectrophotometer was used to detect RNA concentration;
5.3 Q-PCR detection of target gene expression: According to the instructions of Power SYBR® Green PCR Master Mix, the specific operations were as follows:
LX2 cells were passaged and plated normally. After adherent growth for 12 hours, 50 µM of the test compound was added. After 48 hours, the cells were collected, total RNA was extracted, and Q-PCR was used to detect the changes in the mRNA expression levels of liver fibrosis-related genes (ACTA2 encoding α-SMA, COL1A1 and COLIA2 encoding collagen I, COL3A1 encoding collagen III, SMAD3 encoding Smad3) and inflammation-related genes (IL1β encoding IL-1β, TNFα encoding TNFα) (for specific methods, see 5. Q-PCR detection of target gene expression as described above). α-SMA was a marker of hepatic stellate cell activation, and collagen I and collagen III were the main components of extracellular matrix deposition.

collagen I = assay: Semi-activated LX2 cells, Western blot: collagen I protein; details: 50-400 μM, 48 hours, FIG. 1, vs 50 μM aspartic acid
COL1A2 = assay: In vitro efficacy in semi-activated LX2 cells, qPCR: COL1A2; details: Homo sapiens, LX-2, 48 hours, Q-PCR, read-out: COL1A2 mRNA inhibition rate
α-SMA = assay: In vitro efficacy in semi-activated LX2 cells, qPCR: α-SMA; details: 48 hours, Q-PCR; for inhibition at 50 µM: read-out: α-SMA mRNA inhibition rate; for inhibition of the expression of α-SMA at the mRNA level: Table 2
Procedure, shortened: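 SYBR Green qPCR read-out of fibrosis-gene mRNA in LX2 cells after 48 h compound treatment (50 µM, added 12 h post-plating); total RNA column-extracted, reverse transcribed, expression derived by relative quantification.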

Compound | inhibition at 50 µM (COL1A1) [%] | inhibition at 50 µM (COL3A1) [%] | inhibition of the mRNA expression levels of liver fibrosis-related genes (overall) [1] | inhibitory effect on collagen I protein expression as compared to ASP (collagen I) | inhibition at 50 µM (COL1A2) [%] | inhibition at 50 µM (α-SMA) [%] | inhibition of the expression of α-SMA at the mRNA level (α-SMA)
N[C@@H](CCC(=O)O)C(=O)O [Compound 47] | 25 to 50 | 10 to 25 | stronger effects | stronger inhibitory effects | – | – | –
COC(=O)[C@@H](N)CC(=O)O [Compound 4] | 25 to 50 | 25 to 50 | stronger effects | – | 1 to 10 | 25 to 50 | could inhibit
COC(=O)C[C@H](N)C(=O)O [Compound 6] | 25 to 50 | 25 to 50 | stronger effects | stronger inhibitory effects | 1 to 10 | 10 to 25 | could inhibit
COC(=O)C[C@H](N)C(=O)OCOC(=O)[C@@H](N)CC(=O)OC [Compound 54, 4-dimethyl O′1,01-methylene (2S,2'S)-bis (2-aminosuccinate) hydrochloride] | 25 to 50 | 10 to 25 | stronger effects | stronger inhibitory effects | – | – | could inhibit

Reference: patent US20250025438A1, “Derivative of aspartic acid and use thereof in treatment of metabolic diseases such as hepatic fibrosis and non-alcoholic hepatitis” (SHENZHEN JINGTAI TECHNOLOGY CO., LTD., priority 2021, published 2025)
